Experiments:
Type in all cases: functional
Olepa ricini [1] = test: Antifeedant activity against Olepa ricini fed on compound pre-treated castor leaves assessed as percent feeding index at 5 ug/cm2 by dual choice leaf disk method
Olepa ricini [2] = test: Antifeedant activity against Olepa ricini fed on compound pre-treated castor leaves assessed as percent feeding index at 1 ug/cm2 by dual choice leaf disk method
Olepa ricini [3] = test: Antifeedant activity against Olepa ricini fed on compound pre-treated castor leaves assessed as percent feeding index at 50 ug/cm2 by dual choice leaf disk method
Olepa ricini [4] = test: Antifeedant activity against Olepa ricini fed on compound pre-treated castor leaves assessed as duration of development of fourth-instar larvae at 0.5 ug/cm2 by dual choice leaf disk method (reference value: 7.5 +/- 0.2 days)
Olepa ricini [5] = test: Antifeedant activity against Olepa ricini fed on compound pre-treated castor leaves assessed as duration of development of third-instar larvae at 0.5 ug/cm2 by dual choice leaf disk method (reference value: 4.5 +/- 0.7 days)
Olepa ricini [6] = test: Antifeedant activity against Olepa ricini fed on compound pre-treated castor leaves assessed as duration of development of fifth-instar larvae at 0.5 ug/cm2 by dual choice leaf disk method (reference value: 4.5 +/- 0.4 days)
Olepa ricini [7] = test: Antifeedant activity against Olepa ricini fed on compound pre-treated castor leaves assessed as pupal weight at 0.5 ug/cm2 by dual choice leaf disk method (reference value: 476 +/- 10.6 mg)
Olepa ricini [8] = test: Antifeedant activity against Olepa ricini fed on compound pre-treated castor leaves assessed as duration of development of pupa at 0.5 ug/cm2 by dual choice leaf disk method (reference value: 7.5 +/- 0.3 days)
Olepa ricini [9] = test: Antifeedant activity against Olepa ricini fed on compound pre-treated castor leaves assessed as insect mortality at 0.5 ug/cm2 by dual choice leaf disk method (reference value: 4%); conditions: foliar
Olepa ricini [10] = test: Antifeedant activity against Olepa ricini fed on compound pre-treated castor leaves assessed as percent feeding index at 10 ug/cm2 by dual choice leaf disk method
Olepa ricini [11] = test: Antifeedant activity against Olepa ricini fed on compound pre-treated castor leaves assessed as duration of development of third-instar larvae at 1 ug/cm2 by dual choice leaf disk method (reference value: 4.5 +/- 0.7 days)
Olepa ricini [12] = test: Antifeedant activity against Olepa ricini fed on compound pre-treated castor leaves assessed as duration of development of fourth-instar larvae at 1 ug/cm2 by dual choice leaf disk method (reference value: 7.5 +/- 0.2 days)
Olepa ricini [13] = test: Antifeedant activity against Olepa ricini fed on compound pre-treated castor leaves assessed as pupal weight at 1 ug/cm2 by dual choice leaf disk method (reference value: 476 +/- 10.6 mg)
Olepa ricini [14] = test: Antifeedant activity against Olepa ricini fed on compound pre-treated castor leaves assessed as duration of development of fifth-instar larvae at 1 ug/cm2 by dual choice leaf disk method (reference value: 4.5 +/- 0.4 days)
Olepa ricini [15] = test: Antifeedant activity against Olepa ricini fed on compound pre-treated castor leaves assessed as duration of development of pupa at 1 ug/cm2 by dual choice leaf disk method (reference value: 7.5 +/- 0.3 days)
Olepa ricini [16] = test: Antifeedant activity against Olepa ricini fed on compound pre-treated castor leaves assessed as insect mortality at 1 ug/cm2 by dual choice leaf disk method (reference value: 4%); conditions: foliar

Compound | FI (Olepa ricini [1]) | FI (Olepa ricini [2]) | FI (Olepa ricini [3]) | Time (Olepa ricini [4]) | Time (Olepa ricini [5]) | Time (Olepa ricini [6]) | Activity (Olepa ricini [7]) | Time (Olepa ricini [8]) | mortality at 0.5 µg/cm2 (Olepa ricini [9]) | FI (Olepa ricini [10]) | Time (Olepa ricini [11]) | Time (Olepa ricini [12]) | Activity (Olepa ricini [13]) | Time (Olepa ricini [14]) | Time (Olepa ricini [15]) | mortality at 1 µg/cm2 (Olepa ricini [16])
C/C=C(\C)C(=O)O[C@H]1C[C@@H](OC(C)=O)[C@@]2(C(=O)OC)CO[C@H]3[C@@H](O)[C@@](C)([C@]45O[C@@]4(C)[C@H]4C[C@@H]5O[C@@H]5OC=C[C@@]54O)[C@H]4[C@]1(CO[C@]4(O)C(=O)OC)[C@@H]32 [AZADIRACTIN] | 15.6% | 20.8% | 10% | 8.6 days | 7 days | 5.7 days | 344 mg | 7.4 days | 16% | 12.5% | – | – | – | – | – | –
C=C1[C@@H]([C@@]2(C)C=CC(=O)OC(C)(C)[C@@H]2CC(=O)OC)[C@@H](OC(C)=O)[C@H](OC(C)=O)[C@@]2(C)[C@@H](c3ccoc3)C[C@H]3O[C@]132 [NYMANIA] | 30% | 33.5% | 19.5% | – | – | – | – | – | – | 23.4% | 6.8 days | 8.8 days | 428 mg | 5.3 days | 7.4 days | 16%

From ChEMBL document CHEMBL3045651, “Nymania-3: a bioactive triterpenoid from Dysoxylum malabaricum” (1999)
